The nature of data set [1]: Solubility of the precursor in water. The data set is classed as physicochemical.
Data set [2] is described as follows: Enzyme screening: stereoselective hydrolysis (kinetic resolution) of racemic 1-(2,6-dichloro-3-fluorophenyl)ethyl acetate. The data set is classed as biochemical. Particulars: selective for hydrolysis of (S)-acetate; 5% substrate load, 100 mM potassium phosphate buffer pH 7.2. As to the method: For example, for stereoselective hydrolysis of esters by biocatalysts, a program (Ee2 software-University of Graz) can accurately calculate the E value if the enantiomeric excess (ee) of either the alcohol or the ester at one particular enzymatic conversion are known. The ee value can be obtained, for example, from Equation 1. The [S] and [R] data can be obtained, for example, by HPLC.
The resolution of 1-(2,6-dichloro-3-fluorophenyl)ethyl acetate was carried out as follows. A 96-well plate prepared as described above was thawed for 5 minutes. 80 μL of potassium phosphate buffer (0.1 M, pH 7.2) was then dispensed into the wells using a multi-channel pipette. 10 μL of the substrate stock solution (50 mg/mL acetonitrile) was then added to each well via a multi-channel pipette, and the 96 reactions were incubated at 30° C. and 750 rpm. The reactions were sampled after 16 hours by the transfer of 25 μL of the reaction mixture into a new 96-well plate, which was then quenched by the addition of 150 μL of acetonitrile. The 96-well plate was then centrifuged, and the organic supernatant transferred from each well into another 96-well plate. Sampled reactions were then sealed using a penetrable mat cover and transferred to an HPLC system for analysis. The same plate was used to analyze the samples for both reactivity and enantioselectivity using alternating columns on the HPLC simultaneously. […]

`CC(=O)c1c(Cl)ccc(F)c1Cl` [precursor, 1-(2,6-dichloro-3-fluorophenyl)ethanone] returned a solubility in data set [1] of less than 2500 µg/mL.

B1: Subtilisin Carlsberg (protease from Bacillus licheniformis): commercially available hydrolase of the enzyme screening kit (protein, UniProt P00780 106-379, looked up)
Subtilisin Carlsberg: AQTVPYGIPLIKADKVQAQGFKGANVKVAVLDTGIQASHPDLNVVGGASFVAGEAYNTDGNGHGTHVAGTVAALDNTTGVLGVAPSVSLYAVKVLNSSGSGSYSGIVSGIEWATTNGMDVINMSLGGASGSTAMKQAVDNAYAKGVVVVAAAGNSGSSGNTNTIGYPAKYDSVIAVGAVDSNSNRASFSSVGAELEVMAPGAGVYSTYPTNTYATLNGTSMASPHVAGAAALILSKHPNLSASQVRNRLSSTATYLGSSFYYGKGLINVEAAAQ
As for B1, the Reactivity entry in data set [2] is on record as “Low”.

For the origin of these results see US7465842B2, “Enantioselective biotransformation for preparation of protein tyrosine kinase inhibitor intermediates” (Agouron Pharmaceuticals, Inc., priority 2004, dated 2008).
